Reference: patent publication US6503881B2 (priority 1996, dated 2003)
Read-outs that look alike come from different tables or passages of the source.

System: bacteria

I L K K W P W W P W R R k [MBI 11E2CN]
MIC (A. calcoaceticus AC002): 4 µg/mL
MIC (E. cloacae ECL007): >128 µg/mL
MIC (E. coli ECO002): 8 µg/mL
MIC (E. faecalis EFS002): 32 µg/mL
MIC (E. faecium EFM001): 16 µg/mL
MIC (K. pneumoniae KP002): 64 µg/mL
MIC (P. aeruginosa PA001): >128 µg/mL
MIC (S. aureus SA016): 2 µg/mL
MIC (S. epidermidis SE010): 4 µg/mL
MIC (S. maltophilia SMA001): 64 µg/mL
MIC (S. marcescens SMS004): >128 µg/mL

I L K K W P W W W R K [MBI 11D15CN]
MIC (E. faecalis EFS002): 32 µg/mL
MIC (E. faecium EFM003): 4 µg/mL
MIC (S. aureus SA009): 8 µg/mL

I L K K W P W W W R R K [MBI 11G5CN]
MIC (A. calcoaceticus AC002): 4 µg/mL
MIC (E. cloacae ECL007): >128 µg/mL
MIC (E. coli ECO003): 16 µg/mL
MIC (E. faecalis EFS002): 16 µg/mL
MIC (E. faecium EFM002): 8 µg/mL
MIC (K. pneumoniae KP001): >128 µg/mL
MIC (P. aeruginosa PA003): >128 µg/mL
MIC (S. aureus SA012): 4 µg/mL
MIC (S. epidermidis SE002): 2 µg/mL
MIC (S. maltophilia SMA002): 64 µg/mL
MIC (S. marcescens SMS004): >128 µg/mL

I L K K W P W [MBI 11D10M8]
MIC (E. faecalis EFS002): 32 µg/mL
MIC (E. faecium EFM003): 32 µg/mL
MIC (S. aureus SA008): 32 µg/mL

I L K K W V W W V W R R K [MBI 11F1CN]
MIC (E. cloacae ECL007): >128 µg/mL
MIC (E. coli ECO003): 8 µg/mL
MIC (E. faecalis EFS004): 16 µg/mL
MIC (E. faecium EFM003): 2 µg/mL
MIC (K. pneumoniae KP002): 32 µg/mL
MIC (P. aeruginosa PA004): 64 µg/mL
MIC (S. aureus SA009): 2 µg/mL
MIC (S. marcescens SBSM1): >128 µg/mL
MIC (S. marcescens SMS003): >128 µg/mL

I L K K W W W P W R K [MBI 11D14CN]
MIC (E. faecalis EFS002): 32 µg/mL
MIC (E. faecium EFM003): 1 µg/mL
MIC (S. aureus SA009): 4 µg/mL

I L K K W W W P W R R K [MBI 11G4CN]
MIC (A. calcoaceticus AC002): 4 µg/mL
MIC (E. cloacae ECL007): >128 µg/mL
MIC (E. coli ECO005): 32 µg/mL
MIC (E. faecalis EFS002): 32 µg/mL
MIC (E. faecium EFM003): 1 µg/mL
MIC (K. pneumoniae KP001): >128 µg/mL
MIC (P. aeruginosa PA004): >128 µg/mL
MIC (S. aureus SA004): 1 µg/mL
MIC (S. epidermidis SE010): 2 µg/mL
MIC (S. maltophilia SMA002): 64 µg/mL
MIC (S. marcescens SMS003): >128 µg/mL

I L K K Y P W Y P W R R K [MBI 11A5CN]
MIC (A. calcoaceticus AC001): >128 µg/mL
MIC (E. cloacae ECL007): >128 µg/mL
MIC (E. coli ECO003): 128 µg/mL
MIC (E. faecalis EFS002): 32 µg/mL
MIC (E. faecium EFM003): 4 µg/mL
MIC (K. pneumoniae KP001): >128 µg/mL
MIC (P. aeruginosa PA003): >128 µg/mL
MIC (S. aureus SA002): 6 µg/mL
MIC (S. maltophilia SMA002): >128 µg/mL
MIC (S. marcescens SMS003): >128 µg/mL

I L K W P W W P W R K [MBI 11B5CN]
MIC (A. calcoaceticus AC002, agarose dilution): 4 µg/mL
MIC (E. cloacae ECL007, agarose dilution): >128 µg/mL
MIC (E. coli ECO005, agarose dilution): 16 µg/mL
MIC (E. faecalis EFS001, agarose dilution): 2 µg/mL
MIC (E. faecalis EFS002): 16 µg/mL
MIC (E. faecalis EFS008, agarose dilution): 8 µg/mL
MIC (E. faecium EFM002): 1 µg/mL
MIC (K. pneumoniae KP001, agarose dilution): 16 µg/mL
MIC (P. aeruginosa PA004, agarose dilution): >128 µg/mL
MIC (S. aureus SA005): 2 µg/mL
MIC (S. aureus SA014, agarose dilution): 2 µg/mL
MIC (S. aureus SA093, agarose dilution): 1 µg/mL
MIC (S. epidermidis SE010, agarose dilution): 1 µg/mL
MIC (S. maltophilia SMA002, agarose dilution): 64 µg/mL
MIC (S. marcescens SMS003, agarose dilution): >128 µg/mL

I L K W P W W P W R R K [MBI 11B3CN]
MIC (A. calcoaceticus AC001): 64 µg/mL
MIC (E. cloacae ECL007): >128 µg/mL
MIC (E. coli ECO002): 16 µg/mL
MIC (E. faecalis EFS001): 16 µg/mL
MIC (E. faecium EFM001): 8 µg/mL
MIC (K. pneumoniae KP002): 64 µg/mL
MIC (P. aeruginosa PA003): >128 µg/mL
MIC (S. aureus SA010): 4 µg/mL
MIC (S. maltophilia SMA002): 32 µg/mL
MIC (S. marcescens SMS004): >128 µg/mL

I L P W K W P W W P W R R [MBI 10A]
MIC (E. faecalis EFS004): 16 µg/mL
MIC (E. faecium EFM003): 8 µg/mL
MIC (S. aureus SA010): 8 µg/mL

I L R R W P W W P W R K [MBI 11B2CN]
MIC (A. calcoaceticus AC001): 64 µg/mL
MIC (E. cloacae ECL007): >128 µg/mL
MIC (E. coli ECO003): 16 µg/mL
MIC (E. faecalis EFS004): 8 µg/mL
MIC (E. faecium EFM001): 8 µg/mL
MIC (K. pneumoniae KP002): 64 µg/mL
MIC (P. aeruginosa PA003): >128 µg/mL
MIC (S. aureus SA005): 2 µg/mL
MIC (S. maltophilia SMA002): 64 µg/mL
MIC (S. marcescens SMS004): >128 µg/mL

I L R R W P W W P W R R K [MBI 11B1CNW1]
MIC (A. calcoaceticus AC002): 16 µg/mL
MIC (E. cloacae ECL007): 64 µg/mL
MIC (E. coli ECO005): 32 µg/mL
MIC (E. faecalis EFS004): 8 µg/mL
MIC (K. pneumoniae KP001): 32 µg/mL
MIC (P. aeruginosa PA004): 64 µg/mL
MIC (S. aureus SA014): 16 µg/mL
MIC (S. epidermidis SE010): 8 µg/mL
MIC (S. maltophilia SMA002): 32 µg/mL
MIC (S. marcescens SMS003): >128 µg/mL

I L R R W P W W P W R R R [MBI 11B9ACN]
MIC (A. calcoaceticus AC001): 32 µg/mL
MIC (E. coli ECO003): 8 µg/mL
MIC (E. faecalis EFS004): 8 µg/mL
MIC (E. faecium EFM001): 4 µg/mL
MIC (K. pneumoniae KP002): 32 µg/mL
MIC (P. aeruginosa PA005): >128 µg/mL
MIC (S. aureus SA019): 2 µg/mL
MIC (S. epidermidis SE002): 2 µg/mL
MIC (S. maltophilia SMA001): 16 µg/mL
MIC (S. marcescens SMS004): >128 µg/mL
